Source: the supplement of paper PMC11451515

How the values were obtained:
Conditions in all cases: 48 h
NOMO1 [1] = assay: AUC of viability dose-response curve (% viability x log10 dose units); higher = less sensitive
Procedure, shortened: (§1)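 Over 48 h at 37°C, leukemia cells in 1536-well plates (500 or 1000 cells/well), adapted to each medium, received library compounds in DMSO at 11 threefold doses from 47 μM to 0.79 nM. CellTiter-Glo One luminescence, normalised per plate to DMSO and cell-free wells, was fitted by a four-parameter log-logistic function of log10 dose. The area under the curve was then integrated by trapezoidal rule, after scaling curves above full viability and removing those that failed quality control.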

P12-Ichikawa [2] = assay: as above
Procedure, shortened: as §1

SEM cells [3] = assay: as above
Procedure, shortened: as §1

NOMO1 [4] = assay: cell viability relative to DMSO control; higher = less cytotoxic
Procedure, shortened: (§2)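 Library compounds in DMSO were pin-dosed into 1536-well plates (5 μl) holding NOMO1 or SEM (500 cells/well) or P12-Ichikawa (1000 cells/well) leukemia cells, across an 11-point threefold series of 47 μM to 0.79 nM. Each cell line had been adapted for at least four passages in each medium. CellTiter-Glo One luminescence was read after 48 h at 37°C. Viability is the per-plate percentage relative to DMSO wells, with cell-free wells as background.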

P12-Ichikawa [5] = assay: as above
Procedure, shortened: as §2

SEM cells [6] = assay: as above
Procedure, shortened: as §2

N#C/C(=C1/Nc2ccccc2S1)c1ccnc(OCc2ccc(CN3CCOCC3)cc2)n1
AUC of viability dose-response curve
Conditions	NOMO1 [1]	P12-Ichikawa [2]	SEM cells [3]
HPLM + 10% dialyzed FBS	399	429	468
RPMI 5 mM glucose + 10% FBS	412	422	472
RPMI 5 mM glucose + 10% dialyzed FBS	407	434	461

cell viability [%]
Conditions	NOMO1 [4]	P12-Ichikawa [5]	SEM cells [6]
HPLM + 10% dialyzed FBS, 0.000781 µM	104	106	103
HPLM + 10% dialyzed FBS, 0.00234 µM	120	105	97.2
HPLM + 10% dialyzed FBS, 0.00702 µM	97.1	110	112
HPLM + 10% dialyzed FBS, 0.0211 µM	127	112	101
HPLM + 10% dialyzed FBS, 0.0632 µM	122	110	109
HPLM + 10% dialyzed FBS, 0.19 µM	122	119	108
HPLM + 10% dialyzed FBS, 0.569 µM	107	109	106
HPLM + 10% dialyzed FBS, 1.71 µM	84.9	110	100
HPLM + 10% dialyzed FBS, 5.12 µM	86	105	121
HPLM + 10% dialyzed FBS, 15.4 µM	25.2	40.1	108
HPLM + 10% dialyzed FBS, 46.1 µM	27.5	37.1	99.3
RPMI 5 mM glucose + 10% FBS, 0.000781 µM	104	103	114
RPMI 5 mM glucose + 10% FBS, 0.00234 µM	109	105	98.1
RPMI 5 mM glucose + 10% FBS, 0.00702 µM	105	116	107
RPMI 5 mM glucose + 10% FBS, 0.0211 µM	117	109	115
RPMI 5 mM glucose + 10% FBS, 0.0632 µM	113	111	99.4
RPMI 5 mM glucose + 10% FBS, 0.19 µM	115	109	115
RPMI 5 mM glucose + 10% FBS, 0.569 µM	109	118	115
RPMI 5 mM glucose + 10% FBS, 1.71 µM	101	109	117
RPMI 5 mM glucose + 10% FBS, 5.12 µM	103	102	102
RPMI 5 mM glucose + 10% FBS, 15.4 µM	13.4	28.8	110
RPMI 5 mM glucose + 10% FBS, 46.1 µM	13.7	33.1	87.7
RPMI 5 mM glucose + 10% dialyzed FBS, 0.000781 µM	112	101	85
RPMI 5 mM glucose + 10% dialyzed FBS, 0.00234 µM	105	106	84.4
RPMI 5 mM glucose + 10% dialyzed FBS, 0.00702 µM	96	106	118
RPMI 5 mM glucose + 10% dialyzed FBS, 0.0211 µM	120	93.1	110
RPMI 5 mM glucose + 10% dialyzed FBS, 0.0632 µM	109	105	111
RPMI 5 mM glucose + 10% dialyzed FBS, 0.19 µM	114	104	100
RPMI 5 mM glucose + 10% dialyzed FBS, 0.569 µM	111	108	113
RPMI 5 mM glucose + 10% dialyzed FBS, 1.71 µM	99	107	113
RPMI 5 mM glucose + 10% dialyzed FBS, 5.12 µM	86	102	104
RPMI 5 mM glucose + 10% dialyzed FBS, 15.4 µM	18	44.5	109
RPMI 5 mM glucose + 10% dialyzed FBS, 46.1 µM	14.6	38.6	87.8

CC(S)C(=O)NCC(=O)O (centres undefined)
AUC of viability dose-response curve
Conditions	NOMO1 [1]	P12-Ichikawa [2]	SEM cells [3]
HPLM + 10% dialyzed FBS	464	471	438
RPMI 5 mM glucose + 10% FBS	440	476	432
RPMI 5 mM glucose + 10% dialyzed FBS	469	472	417

cell viability [%]
Conditions	NOMO1 [4]	P12-Ichikawa [5]	SEM cells [6]
HPLM + 10% dialyzed FBS, 0.000781 µM	116	106	40
HPLM + 10% dialyzed FBS, 0.00234 µM	109	110	99
HPLM + 10% dialyzed FBS, 0.00702 µM	110	118	59.5
HPLM + 10% dialyzed FBS, 0.0211 µM	116	109	95
HPLM + 10% dialyzed FBS, 0.0632 µM	116	119	105
HPLM + 10% dialyzed FBS, 0.19 µM	123	101	101
HPLM + 10% dialyzed FBS, 0.569 µM	108	129	92.8
HPLM + 10% dialyzed FBS, 1.71 µM	114	117	103
HPLM + 10% dialyzed FBS, 5.12 µM	111	118	90.6
HPLM + 10% dialyzed FBS, 15.4 µM	97.9	113	113
HPLM + 10% dialyzed FBS, 46.1 µM	89.4	106	95
RPMI 5 mM glucose + 10% FBS, 0.000781 µM	120	109	33
RPMI 5 mM glucose + 10% FBS, 0.00234 µM	112	112	102
RPMI 5 mM glucose + 10% FBS, 0.00702 µM	109	108	50.5
RPMI 5 mM glucose + 10% FBS, 0.0211 µM	107	119	87.8
RPMI 5 mM glucose + 10% FBS, 0.0632 µM	107	116	114
RPMI 5 mM glucose + 10% FBS, 0.19 µM	111	115	105
RPMI 5 mM glucose + 10% FBS, 0.569 µM	107	114	101
RPMI 5 mM glucose + 10% FBS, 1.71 µM	110	126	105
RPMI 5 mM glucose + 10% FBS, 5.12 µM	114	115	84
RPMI 5 mM glucose + 10% FBS, 15.4 µM	116	109	109
RPMI 5 mM glucose + 10% FBS, 46.1 µM	107	106	108
RPMI 5 mM glucose + 10% dialyzed FBS, 0.000781 µM	105	108	35.6
RPMI 5 mM glucose + 10% dialyzed FBS, 0.00234 µM	113	105	92.5
RPMI 5 mM glucose + 10% dialyzed FBS, 0.00702 µM	113	111	45
RPMI 5 mM glucose + 10% dialyzed FBS, 0.0211 µM	107	118	101
RPMI 5 mM glucose + 10% dialyzed FBS, 0.0632 µM	107	112	123
RPMI 5 mM glucose + 10% dialyzed FBS, 0.19 µM	105	112	108
RPMI 5 mM glucose + 10% dialyzed FBS, 0.569 µM	107	113	114
RPMI 5 mM glucose + 10% dialyzed FBS, 1.71 µM	112	113	118
RPMI 5 mM glucose + 10% dialyzed FBS, 5.12 µM	105	113	80.7
RPMI 5 mM glucose + 10% dialyzed FBS, 15.4 µM	96.5	120	119
RPMI 5 mM glucose + 10% dialyzed FBS, 46.1 µM	112	102	104

Nc1nc(N)c(N=O)c(OCC2CCCCC2)n1
AUC of viability dose-response curve
Conditions	NOMO1 [1]	P12-Ichikawa [2]	SEM cells [3]
HPLM + 10% dialyzed FBS	381	395	340
RPMI 5 mM glucose + 10% FBS	379	372	354
RPMI 5 mM glucose + 10% dialyzed FBS	380	371	370

cell viability [%]
Conditions	NOMO1 [4]	P12-Ichikawa [5]	SEM cells [6]
HPLM + 10% dialyzed FBS, 0.000781 µM	89.8	89.4	71.5
HPLM + 10% dialyzed FBS, 0.00234 µM	104	90.3	92.1
HPLM + 10% dialyzed FBS, 0.00702 µM	90.2	88.9	54.6
HPLM + 10% dialyzed FBS, 0.0211 µM	116	90.6	88.7
HPLM + 10% dialyzed FBS, 0.0632 µM	94.5	97.6	91.9
HPLM + 10% dialyzed FBS, 0.19 µM	99	92.2	100
HPLM + 10% dialyzed FBS, 0.569 µM	99.5	88.3	89.4
HPLM + 10% dialyzed FBS, 1.71 µM	62.5	81.1	75.5
HPLM + 10% dialyzed FBS, 5.12 µM	46.9	75.6	40.8
HPLM + 10% dialyzed FBS, 15.4 µM	38.9	60.6	39
HPLM + 10% dialyzed FBS, 46.1 µM	23.4	40.1	28.2
RPMI 5 mM glucose + 10% FBS, 0.000781 µM	90.3	86	94.7
RPMI 5 mM glucose + 10% FBS, 0.00234 µM	90.2	87.3	84.2
RPMI 5 mM glucose + 10% FBS, 0.00702 µM	93	86.9	56.6
RPMI 5 mM glucose + 10% FBS, 0.0211 µM	93.5	93	91.4
RPMI 5 mM glucose + 10% FBS, 0.0632 µM	87.9	98.2	97.2
RPMI 5 mM glucose + 10% FBS, 0.19 µM	94	95.3	93.3
RPMI 5 mM glucose + 10% FBS, 0.569 µM	91.8	84.6	96.7
RPMI 5 mM glucose + 10% FBS, 1.71 µM	76.9	78.7	74
RPMI 5 mM glucose + 10% FBS, 5.12 µM	61.6	53.8	47.8
RPMI 5 mM glucose + 10% FBS, 15.4 µM	48	45	38.1
RPMI 5 mM glucose + 10% FBS, 46.1 µM	28.2	34.7	27.4
RPMI 5 mM glucose + 10% dialyzed FBS, 0.000781 µM	76.6	84.8	81.6
RPMI 5 mM glucose + 10% dialyzed FBS, 0.00234 µM	91.8	89.2	86.2
RPMI 5 mM glucose + 10% dialyzed FBS, 0.00702 µM	78.8	85	71.4
RPMI 5 mM glucose + 10% dialyzed FBS, 0.0211 µM	87.9	86.9	86.8
RPMI 5 mM glucose + 10% dialyzed FBS, 0.0632 µM	97.9	100	96
RPMI 5 mM glucose + 10% dialyzed FBS, 0.19 µM	96.9	88.5	100
RPMI 5 mM glucose + 10% dialyzed FBS, 0.569 µM	91.2	91.3	102
RPMI 5 mM glucose + 10% dialyzed FBS, 1.71 µM	76.8	72.3	79
RPMI 5 mM glucose + 10% dialyzed FBS, 5.12 µM	66.8	59	56.5
RPMI 5 mM glucose + 10% dialyzed FBS, 15.4 µM	60.4	48.9	45.2
RPMI 5 mM glucose + 10% dialyzed FBS, 46.1 µM	33.8	35.9	32
